Data as given in patent US10927096B2, “Ester substituted ion channel blockers and methods for use” (Nocion Therapeutics, Inc., priority 2019, dated 2021).

Legend:
NaV1.7 [1] = target: T1, NaV1.7 (Homo sapiens, UniProt Q15858); test: Automated patch clamp (Qube 384), internal block of NaV1.7 in HEK293 cells; format: cell-based; details: compound in internal solution, read-out: NaV1.7 Intracellular Inhibition
T1 construct: expressed in transfected cells; host or cells: HEK293, tetracycline-inducible
T1 sequence (Q15858 whole entry): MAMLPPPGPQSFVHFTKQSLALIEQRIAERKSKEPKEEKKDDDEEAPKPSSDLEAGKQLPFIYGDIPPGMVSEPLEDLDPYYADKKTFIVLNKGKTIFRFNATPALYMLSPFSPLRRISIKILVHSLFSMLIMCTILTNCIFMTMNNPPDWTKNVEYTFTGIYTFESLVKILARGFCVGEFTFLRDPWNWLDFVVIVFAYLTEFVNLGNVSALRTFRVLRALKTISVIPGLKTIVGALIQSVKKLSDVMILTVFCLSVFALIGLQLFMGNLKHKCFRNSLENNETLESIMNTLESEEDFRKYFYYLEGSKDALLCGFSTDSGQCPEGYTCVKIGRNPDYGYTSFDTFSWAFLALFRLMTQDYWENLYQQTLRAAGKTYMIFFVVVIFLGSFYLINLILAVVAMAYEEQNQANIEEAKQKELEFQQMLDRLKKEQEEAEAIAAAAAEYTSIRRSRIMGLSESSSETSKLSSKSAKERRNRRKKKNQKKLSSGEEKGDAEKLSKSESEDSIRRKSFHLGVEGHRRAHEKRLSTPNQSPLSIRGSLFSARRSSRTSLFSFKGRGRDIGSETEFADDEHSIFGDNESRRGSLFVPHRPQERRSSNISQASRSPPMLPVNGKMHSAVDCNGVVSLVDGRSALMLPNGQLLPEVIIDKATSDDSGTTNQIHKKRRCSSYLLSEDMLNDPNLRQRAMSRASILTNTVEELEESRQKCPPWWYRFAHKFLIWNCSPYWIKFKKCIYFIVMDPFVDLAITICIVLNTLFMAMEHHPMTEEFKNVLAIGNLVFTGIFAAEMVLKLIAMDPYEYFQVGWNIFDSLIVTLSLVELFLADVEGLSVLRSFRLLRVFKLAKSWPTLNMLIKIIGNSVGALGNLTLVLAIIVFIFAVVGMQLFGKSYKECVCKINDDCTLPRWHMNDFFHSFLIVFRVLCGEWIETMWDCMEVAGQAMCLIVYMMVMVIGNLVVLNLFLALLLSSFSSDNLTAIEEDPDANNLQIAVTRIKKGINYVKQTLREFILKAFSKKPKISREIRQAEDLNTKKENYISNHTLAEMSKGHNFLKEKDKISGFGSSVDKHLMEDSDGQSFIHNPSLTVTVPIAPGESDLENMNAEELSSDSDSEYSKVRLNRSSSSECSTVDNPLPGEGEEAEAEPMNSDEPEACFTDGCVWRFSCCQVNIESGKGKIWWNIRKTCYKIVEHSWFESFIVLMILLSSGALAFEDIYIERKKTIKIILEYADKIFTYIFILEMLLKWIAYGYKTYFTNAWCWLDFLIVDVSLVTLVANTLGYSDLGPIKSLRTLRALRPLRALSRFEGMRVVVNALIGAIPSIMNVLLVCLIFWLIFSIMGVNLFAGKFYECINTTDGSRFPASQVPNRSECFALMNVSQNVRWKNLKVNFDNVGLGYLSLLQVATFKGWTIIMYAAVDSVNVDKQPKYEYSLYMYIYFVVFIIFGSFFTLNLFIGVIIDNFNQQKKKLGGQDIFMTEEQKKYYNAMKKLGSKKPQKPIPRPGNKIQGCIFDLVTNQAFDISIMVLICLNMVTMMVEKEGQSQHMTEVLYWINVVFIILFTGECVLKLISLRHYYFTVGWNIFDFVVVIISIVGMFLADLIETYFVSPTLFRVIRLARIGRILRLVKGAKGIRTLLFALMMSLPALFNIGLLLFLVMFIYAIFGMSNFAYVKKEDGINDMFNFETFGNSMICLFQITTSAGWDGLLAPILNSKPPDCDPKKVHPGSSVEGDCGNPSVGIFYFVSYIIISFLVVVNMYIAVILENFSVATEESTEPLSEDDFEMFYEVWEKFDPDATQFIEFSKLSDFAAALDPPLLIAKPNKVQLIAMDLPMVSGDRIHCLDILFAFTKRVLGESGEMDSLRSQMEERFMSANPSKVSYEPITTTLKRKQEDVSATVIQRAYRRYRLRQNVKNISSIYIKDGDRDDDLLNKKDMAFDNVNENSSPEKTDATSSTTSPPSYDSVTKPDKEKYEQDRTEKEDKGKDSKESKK
Protocol: (§1) NaV1.7 was expressed in HEK293 cells upon induction with tetracycline. Cells were cultured in DMEM containing 10% dialyzed Fetal Bovine Serum (VWR, Radnor, Pa.), 1% Glutamax (VWR, Radnor, Pa.), 1% Penicillin-Streptomycin (VWR, Radnor, Pa.), 100 mg/L Hygromycin (Thermo Fisher Scientific, Waltham, Mass. and 5 mg/L Blasticidin (Alfa Aesar, Haverhill, Mass.). Cells were grown and maintained at 37° C. in a humidified environment containing 10% CO2 in air. Cells were detached from the culture flask for passage and harvested using 0.05% Trypsin-EDTA (Thermo Fisher Scientific, Waltham, Mass.). To induce NaV1.7, cells were induced with tetracycline (0.1-1 μg/mL, IBI Scientific, Peosta, Iowa) the day before recording.
Before experiments, cells were washed with DPBS (VWR, Radnor, Pa.), digested with Detachin (VWR Radnor, Pa.) and then triturated 10 times in CHO Serum-Free Media (VWR Radnor, Pa.) to resuspend the cells and to break apart cell aggregates. Cells were counted and the final concentration was set at 2-5 million cells per mL.
The intracellular solution contained the following: 140 mM CsF, 1 mM/5 mM EGTA/CsOH, 10 mM HEPES, 10 mM NaCl, adjusted to pH 7.3 with CsOH, and osmolality to 320 with sucrose. The external solution contained the following: 145 mM NaCl, 4 mM KCl, 1 mM MgCl2, 2 mM CaCl2, 10 mM HEPES, 10 mM Glucose, adjusted to pH 7.4 with CsOH and osmolality to 305 with sucrose. All chemicals are from Sigma-Aldrich, St. Louis, Mo. In order to test the degree of internal block by test compounds, the compounds were dissolved in internal solution at the indicated test concentration. […] In order to test the degree of external block by test compounds the compounds were dissolved in external solution at the indicated test concentration.
Automated Patch Clamps were performed on Qube 384 (Sophion Bioscience, Woburn Mass.) with multihole Qchips at a temperature setting of 22 degrees. The whole cells configuration was formed with default Qube seal and break-in parameter. The membrane potential was held at −100 mV before the voltage protocol began. Two voltage protocols were followed.
Step 1: Cells were held at −100 mV with a depolarized pulse to −20 mV for 10 ms, the interval was set at 5 s. Currents were corrected by default leak subtraction from every pulse. The duration was set at 5 mins.
Step 2: Cells were held at −100 mV with a depolarized pulse to −20 mV for 10 ms. The frequency was 5 Hz. Currents were corrected by leak subtraction calculated before step 2. The duration was set at 4 mins.
After Step 2, the Qchip was removed from the recording chamber. The internal solution was changed with solutions containing test compounds. Qchips were held at −100 mV without pulsing after being replaced in the recording chamber. The total solution switching time was 8 minutes. After the internal solution exchange, Cells were recorded and step 2 for repeated for 10 minutes.
Data analysis was performed by Sophion Analyzer. Cells were filtered with minimum 50 MOhm seal resistance and minimum 5 nA starting current. The rundown of the currents was corrected with control cells (Non-Drug). The remaining was calculated by averaging last 3 points in the end of experiments. The base line was calculated as the average of last 3 points of Step 2. IC50 curves were plotted with DR-plots/Hill function (a dose-response plot with a Hill fit).
Representative examples of the invention were tested for intracellular inhibition of NaV 1.7 in the automated patch clamp assay. Activity Range is reported as IC50: “++++” (<1 μM), “+++” (1-3 μM), “++” (3-10 μM) or “+” (10-30 μM).

[2] = PAMPA membrane permeability assay; format: physicochemical; details: pH 7.4 buffer, GIT lipid, 4 hours incubation
Protocol: The PAMPA assay (pION, Inc., Woburn Mass.) was used to determine the ability of compounds of the invention to cross an artificial lipid membrane by passive diffusion. Test compounds were dissolved in DMSO (10 mM) and diluted 200-fold in buffer (pION Inc., pH 7.4) to provide 50 uM stock solutions. Buffer (150 μL) was added to a UV blank plate and stock solutions (150 μL) were transferred to a UV reference plate. The blank and reference spectrum were read using a spectrophotometer. Stock solutions (200 μL) were added to the donor plate of the PAMPA sandwich plate and an accept plate painted with GIT lipid (pION Inc, 5 μL) was placed on top. Buffer (200 μL) was added to the acceptor plate and the PAMPA sandwich plate was incubated for 4 hours. Aliquots (150 μL) from the acceptor plate were added to a UV plate and read as acceptor spectrum. Aliquots (150 μL) of the donor solutions were added to a UV analysis plate and read as donor spectrum. The permeability coefficient of test compounds was calculated using PAMPA Explorer™ software (version 3.5.0.4) based on the AUC of the reference plate, the donor plate, and the acceptor plate.
The PAMPA permeability results (10^−6 cm/s) of representative compounds are reported as “+” (<0.1 10^−6 cm/s), “++” (0.1-2.0 10^−6 cm/s), “+++” (2.0-10.010^−6 cm/s) or “++++” (>10.0 10^−6 cm/s).

NaV1.7 [3] = target: T1, NaV1.7; test: Whole cell patch clamp, internal block of NaV1.7 current; format: cell-based; details: % inhibition at 1 μM test concentration, compound in internal solution, manual whole cell patch clamp
Protocol: as §1, with “expressed” for “expressed in HEK293 cells”, “C02” for “CO2”, “recording and plated onto 24-well plates. Cells were washed with DPBS (VWR, Radnor, Pa.), trypsinized and then triturated five times in 10 mL of growth media to break apart cell aggregates. For one 24-well plate, 2 mL of cell suspension was mixed with 23 mL of fresh growth media and 0.1-1 μg/mL tetracycline added. 1 ml of mixed media with cells was then added to each well of a 24-well plate, with a 12 mm coverslip already placed in the bottom of the well. Cells were then incubated in 37° C. and 10% CO2 overnight.” for “recording.”
The intracellular solution contained the following (in mM) CsCl 135, NaCl 10, EGTA 10, HEPES 10, MgCl2 2, adjusted to pH 7.2 with CsOH. The external solution was a normal Ringer solution containing (in mM) NaCl 155, HEPES 10, glucose 10, KCl 3.5, CaCl2 1.5, MgCl2 1 adjusted to pH 7.4 with NaOH. CsCl is from Alfa Aesar, Haverhill, Mass. All other chemicals are from Sigma-Aldrich, St. Louis, Mo. In order to test the degree of internal block by test compounds the compounds were dissolved in internal solution at the indicated test concentration. […] In order to test the degree of external block by test compounds the compounds were dissolved in external solution at the indicated test concentration.
18-24 hours after cells were induced with tetracycline, coverslips were placed into a chamber filled with Normal Ringer solution at room temperature and the chamber placed on a microscope. Pipettes were pulled from borosilicate glass on a P97 puller (Sutter Instrument, Novato, Calif.) and polished with a MF-830 Microforge (Narishige International USA, Inc, Amityville, N.Y.) to have a resistance of 1.5-2.5 MΩ when filled with CsCl internal solution at room temperature. Healthy cells (those that are round and translucent with no visible blemishes) were chosen for seal formation. A seal was formed between the pipette and the cell, and a brief pulse of suction was used to “break in” and establish the whole-cell configuration. The membrane potential was held at −100 mV before the voltage protocol began. Only cells with series resistance between 1.5-5 MΩ were retained for analysis. The voltage protocol was as follows: Cells were held at −100 mV for 12 ms followed by a hyperpolarizing step to −105 mV for 12 ms to monitor the leak. Cells were then stepped back to −100 mV for 40 ms. Cells were then depolarized to −20 mV for 10 ms and then returned to −100 mV for 26 ms (The FIGURE).
Once the recording was started, the voltage protocol was run at 30 second intervals for 5 minutes to get a stable baseline. This was followed by four 30-second periods of 5 Hz stimulation of the same voltage protocol separated by 1 minute of rest which was then followed by 0.33 Hz stimulation after the last train. Currents were recorded using PatchMaster software with Heka EPC10 (HEKA Electronics, Lambrecht, Germany). Only cells with inward current amplitudes at −20 mV between 400 pA and 4 nA were accepted. In addition, cells having leak currents greater than 10% of their current amplitudes were discarded.
The data was plotted using the Patchmaster software (HEKA Electronics, Lambrecht, Germany) and analyzed by plotting the minimum current during the voltage step to −20 mV (peak inward current) as a function of time. […]

SMILES | IC50 (NaV1.7 [1]) [µM] | PAMPA (10^−6 cm/s) [2] | NaV1.7 Intracellular Inhibition (NaV1.7 [3])
COC(=O)c1cccc(C)c1NC(=O)C[N+]1(Cc2ccccc2)CCCC(C(=O)OC2CCCCC2)C1 (mixture of isomers) [Compound 17] | 3 to 10 | +++ (2.0-10.010^−6 cm/s) | –
CCCOC(=O)C1CCC[N+](CC(=O)Nc2c(C)cccc2C(=O)OC)(Cc2ccccc2)C1 (mixture of isomers) [Compound 18] | 1 to 3 | + (<0.1 10^−6 cm/s) | –
COC(=O)c1cccc(C)c1NC(=O)C[N+]1(Cc2ccccc2)CCCC(C(=O)OCC(C)C)C1 (mixture of isomers) [Compound 20] | 1 to 3 | + (<0.1 10^−6 cm/s) | –
COC(=O)c1cccc(C)c1NC(=O)C[N+]1(Cc2ccccc2)CCCC(C(=O)N2CCCCC2)C1 (mixture of isomers) [Compound 37] | 1 to 3 | + (<0.1 10^−6 cm/s) | –
COC(=O)c1cccc(C)c1NC(=O)C[N+]1(Cc2ccccc2)CCCC(C(=O)NC2CCCCC2)C1 (mixture of isomers) [Compound 42] | 1 to 3 | + (<0.1 10^−6 cm/s) | –
CCCN(CCC)C(=O)C1CCC[N+](CC)(CC(=O)Nc2c(C)cccc2C(=O)OC)C1 (mixture of isomers) [Compound 47] | – | + (<0.1 10^−6 cm/s) | –
CC[N+]1(CC(=O)Nc2c(C)cccc2C(=O)OC)CCCC(C(=O)N2CCCCCC2)C1 (mixture of isomers) [Compound 51] | 1 to 3 | + (<0.1 10^−6 cm/s) | –
CC[N+]1(CC(=O)Nc2c(C)cccc2C(=O)OC)CCCC(C(=O)NC2CCCC2)C1 (mixture of isomers) [Compound 52] | 1 to 3 | + (<0.1 10^−6 cm/s) | –
CCOC(=O)c1cccc(C)c1NC(=O)C[N+]1(Cc2ccccc2)CCCCCCC1.[Br-] [Compound 10] | – | + (<0.1 10^−6 cm/s) | +++ (90-70%)
COC(=O)c1cccc(C)c1NC(=O)C[N+]1(Cc2ccccc2)CCCC(C(=O)OC(C)C)C1 (centres unmarked) [Compound 19] | < 1 | – | –
COC(=O)c1cccc(C)c1NC(=O)C[N+]1(Cc2ccccc2)CCCC(C(=O)OC2CCCC2)C1.[Br-] (centres unmarked) [Compound 21] | 3 to 10 | + (<0.1 10^−6 cm/s) | –
CC[N+]1(CC(=O)Nc2c(C)cccc2C(=O)OC)CCCC(C(=O)OC2CCCC2)C1.[I-] (centres unmarked) [Compound 22] | 1 to 3 | + (<0.1 10^−6 cm/s) | –
CCOC(=O)C1CCC[N+](CC)(CC(=O)Nc2c(C)cccc2C(=O)OC)C1.[I-] (centres unmarked) [Compound 24] | – | + (<0.1 10^−6 cm/s) | ++ (70-30%)
CCN(CC)C(=O)C1CCC[N+](CC(=O)Nc2c(C)cccc2C(=O)OC)(Cc2ccccc2)C1.O=C([O-])C(F)(F)F (centres unmarked) [Compound 38] | – | + (<0.1 10^−6 cm/s) | ++ (70-30%)
CCCN(CCC)C(=O)C1CCC[N+](CC(=O)Nc2c(C)cccc2C(=O)OC)(Cc2ccccc2)C1.[Br-] (centres unmarked) [Compound 39] | – | + (<0.1 10^−6 cm/s) | + (<30%)
CC[N+]1(CC(=O)Nc2c(C)cccc2C(=O)OC)CCCC(C(=O)N(C)C)C1.[I-] (centres unmarked) [Compound 44] | – | + (<0.1 10^−6 cm/s) | + (<30%)
CC[N+]1(CC(=O)Nc2c(C)cccc2C(=O)OC)CCCC(C(=O)NCC(C)C)C1.[I-] (centres unmarked) [Compound 48] | 1 to 3 | + (<0.1 10^−6 cm/s) | –
CC[N+]1(CC(=O)Nc2c(C)cccc2C(=O)OC)CCCC(C(=O)NC(C)C)C1.[I-] (centres unmarked) [Compound 50] | 1 to 3 | + (<0.1 10^−6 cm/s) | –
CCN(CC)C(=O)C1CCC[N+](CC)(CC(=O)Nc2c(C)cccc2C(=O)OC)C1.[I-] (centres unmarked) [Compound 53] | 1 to 3 | + (<0.1 10^−6 cm/s) | –
CCOC(=O)c1cccc(C)c1NC(=O)C[n+]1cccc(C(=O)OC2CCCC2)c1.[Br-] [Compound 68] | 3 to 10 | +++ (2.0-10.010^−6 cm/s) | –
